Reference: ChEMBL document CHEMBL3046900, “Synthesis and Fungitoxic Activity of N-Cinnamoyl--Amino Acid Esters” (2000)

How the values were obtained:
Format in all cases: functional
Pythium [1] = experiment: Fungitoxic activity against Pythium sp. assessed as mycelial growth inhibition at 10 ppm after 3 days; conditions: 72 h, read-out: GI
Pythium [2] = experiment: Fungitoxic activity against Pythium sp. assessed as mycelial growth inhibition at 100 ppm after 3 days; conditions: 72 h, read-out: GI
Athelia rolfsii [3] = experiment: Fungitoxic activity against Athelia rolfsii assessed as mycelial growth inhibition at 10 ppm after 3 days; conditions: Agroathelia rolfsii, 72 h; read-out: GI
Athelia rolfsii [4] = experiment: Fungitoxic activity against Athelia rolfsii assessed as mycelial growth inhibition at 100 ppm after 3 days; conditions: Agroathelia rolfsii, 72 h; read-out: GI

## CC(C)OC(=O)CNC(=O)/C=C/c1ccc(Cl)cc1
Pythium [1]
  inhibition of growth at 10 ppm: 0%
Pythium [2]
  inhibition of growth at 100 ppm: 57%
Athelia rolfsii [3]
  inhibition of growth at 10 ppm: 41%
Athelia rolfsii [4]
  inhibition of growth at 100 ppm: 50%

## CCCOC/C(=N\c1ccc(Cl)cc1C(F)(F)F)n1ccnc1 [TRIFLUMIZOLE]
Pythium [1]
  inhibition of growth at 10 ppm: 71%
Pythium [2]
  inhibition of growth at 100 ppm: 94%
Athelia rolfsii [3]
  inhibition of growth at 10 ppm: 64%
Athelia rolfsii [4]
  inhibition of growth at 100 ppm: 100%

## CC(C)OC(=O)CNC(=O)/C=C/c1ccc(C(C)C)cc1
Pythium [1]
  inhibition of growth at 10 ppm: 11%
Pythium [2]
  inhibition of growth at 100 ppm: 70%
Athelia rolfsii [3]
  inhibition of growth at 10 ppm: 37%
Athelia rolfsii [4]
  inhibition of growth at 100 ppm: 79%

## COC(=O)[C@@H](NC(=O)/C=C/c1ccc(Cl)cc1Cl)C(C)C
Pythium [1]
  inhibition of growth at 10 ppm: 10%
Pythium [2]
  inhibition of growth at 100 ppm: 67%
Athelia rolfsii [3]
  inhibition of growth at 10 ppm: 24%
Athelia rolfsii [4]
  inhibition of growth at 100 ppm: 63%

## CCCOC(=O)CNC(=O)/C=C/c1ccc(C(C)C)cc1
Pythium [1]
  inhibition of growth at 10 ppm: 24%
Pythium [2]
  inhibition of growth at 100 ppm: 63%
Athelia rolfsii [3]
  inhibition of growth at 10 ppm: 23%
Athelia rolfsii [4]
  inhibition of growth at 100 ppm: 74%

## CCOC(=O)[C@@H](NC(=O)/C=C/c1ccc(Cl)cc1)[C@@H](C)CC
Pythium [1]
  inhibition of growth at 10 ppm: 0%
Pythium [2]
  inhibition of growth at 100 ppm: 58%
Athelia rolfsii [3]
  inhibition of growth at 10 ppm: 42%
Athelia rolfsii [4]
  inhibition of growth at 100 ppm: 50%

## COC(=O)[C@@H](NC(=O)/C=C/c1ccc(Cl)cc1)C(C)C
Pythium [1]
  inhibition of growth at 10 ppm: 0%
Pythium [2]
  inhibition of growth at 100 ppm: 52%
Athelia rolfsii [3]
  inhibition of growth at 10 ppm: 20%
Athelia rolfsii [4]
  inhibition of growth at 100 ppm: 53%

## CCOC(=O)[C@@H](NC(=O)/C=C/c1ccc(C(C)C)cc1)C(C)C
Pythium [1]
  inhibition of growth at 10 ppm: 10%
Pythium [2]
  inhibition of growth at 100 ppm: 67%
Athelia rolfsii [3]
  inhibition of growth at 10 ppm: 27%
Athelia rolfsii [4]
  inhibition of growth at 100 ppm: 51%

## CCCOC(=O)[C@H](C)NC(=O)/C=C/c1ccc(Cl)cc1Cl
Pythium [1]
  inhibition of growth at 10 ppm: 0%
Pythium [2]
  inhibition of growth at 100 ppm: 61%
Athelia rolfsii [3]
  inhibition of growth at 10 ppm: 14%
Athelia rolfsii [4]
  inhibition of growth at 100 ppm: 51%

## CC(C)C[C@H](NC(=O)/C=C/c1ccc(Cl)cc1)C(=O)OC(C)C
Pythium [1]
  inhibition of growth at 10 ppm: 7%
Pythium [2]
  inhibition of growth at 100 ppm: 70%
Athelia rolfsii [3]
  inhibition of growth at 10 ppm: 32%
Athelia rolfsii [4]
  inhibition of growth at 100 ppm: 89%

## COC(=O)[C@@H](NC(=O)/C=C/c1ccc(C(C)C)cc1)C(C)C
Pythium [1]
  inhibition of growth at 10 ppm: 14%
Pythium [2]
  inhibition of growth at 100 ppm: 74%
Athelia rolfsii [3]
  inhibition of growth at 10 ppm: 23%
Athelia rolfsii [4]
  inhibition of growth at 100 ppm: 63%

## CCOC(=O)[C@H](C)NC(=O)/C=C/c1ccc(C(C)C)cc1
Pythium [1]
  inhibition of growth at 10 ppm: 0%
Pythium [2]
  inhibition of growth at 100 ppm: 63%
Athelia rolfsii [3]
  inhibition of growth at 10 ppm: 27%
Athelia rolfsii [4]
  inhibition of growth at 100 ppm: 60%

## CC[C@H](C)[C@H](NC(=O)/C=C/c1ccc(C(C)C)cc1)C(=O)OC
Pythium [1]
  inhibition of growth at 10 ppm: 26%
Pythium [2]
  inhibition of growth at 100 ppm: 65%
Athelia rolfsii [3]
  inhibition of growth at 10 ppm: 41%
Athelia rolfsii [4]
  inhibition of growth at 100 ppm: 55%

## CCCOC(=O)[C@H](C)NC(=O)/C=C/c1ccc(C(C)C)cc1
Pythium [1]
  inhibition of growth at 10 ppm: 4%
Pythium [2]
  inhibition of growth at 100 ppm: 52%
Athelia rolfsii [3]
  inhibition of growth at 10 ppm: 20%
Athelia rolfsii [4]
  inhibition of growth at 100 ppm: 53%

## COC(=O)[C@H](Cc1ccccc1)NC(=O)/C=C/c1ccc(C(C)C)cc1
Pythium [1]
  inhibition of growth at 10 ppm: 8%
Pythium [2]
  inhibition of growth at 100 ppm: 57%
Athelia rolfsii [3]
  inhibition of growth at 10 ppm: 28%
Athelia rolfsii [4]
  inhibition of growth at 100 ppm: 52%
